Laboratory results as given in patent US7217682B2, “Cyclopropanecarboxylic acid esters and pest controllers containing the same” (Sumitomo Chemical Company, Limited, priority 2001, dated 2007).

Each compound was assayed on Adult houseflies (assay: Knock-down test on adult houseflies, oil solution sprayed into a cubic chamber). Details: 0.7 ml of 0.025% oil solution sprayed in 70 cm cubic chamber; 5 male and 5 female adult houseflies; counted for 10 minutes; average of two repeats.
Type: in vivo
Description: A solution of 0.025 part of Present Compound 1 to 6 dissolved with 10 parts of dichloromethane was mixed with […] parts of deodorized kerosene to give a 0.025% oil solution.
Adult houseflies (5 males and 5 females) were left in a cubic chamber (70 cm at side). Seven-tenths (0.7) ml of the 0.025% oil solution of Present Compound 1 to 6 prepared above was sprayed with a spray gun at a pressure of 8.8×10^4 Pa from a small window on the side of the chamber. Then, the number of the knocked-down insects was counted at times for 10 minutes. The time for knocking down half of the tested insects (KT50) was calculated from the result.
Furthermore, the test was similarly done by using (4-methoxymethyl-2,3,5,6-tetrafluoro)phenylmethyl [1R[1α, 3β(Z)]]-2,2-dimethyl-3-(2-fluoro-3-methoxy-3-oxopropenyl)cyclopropanecarboxylate (hereinafter, referred to as Comparative Compound):
[drawing 12] described in GB patent publication 2,268,740 as a comparative compound. The tests were done twice repeat, and the KT50 values were calculated from the averages.

Row | SMILES | KT50 (time for knocking down half of the tested insects) [min]
1 | COCc1c(F)c(F)c(COC(=O)C2C(/C=C(\C#N)C(=O)OC(C)(C)C)C2(C)C)c(F)c1F (stereo not shown) [Present Compound 6, 4-methoxymethyl-2,3,5,6-tetrafluorobenzyl 2,2-dimethyl-3-((E)-2-cyano-3-t-butyloxy-3-oxo-1-propenyl) cyclopropanecarboxylate] | 3.4
2 | CCCOC(=O)/C(C#N)=C/C1C(C(=O)OCc2c(F)c(F)c(COC)c(F)c2F)C1(C)C (stereo not shown) [Present Compound 3, 4-methoxymethyl-2,3,5,6-tetrafluorobenzyl 2,2-dimethyl-3-((E)-2-cyano-3-propoxy-3-oxo-1-propenyl) cyclopropanecarboxylate] | 4.1
3 | CCOC(=O)/C(C#N)=C/C1C(C(=O)OCc2c(F)c(F)c(COC)c(F)c2F)C1(C)C (stereo not shown) [Present Compound 1, 4-methoxymethyl-2,3,5,6-tetrafluorobenzyl 2,2-dimethyl-3-((E)-2-cyano-3-ethoxy-3-oxo-1-propenyl) cyclopropanecarboxylate] | 1.5
4 | COCc1c(F)c(F)c(COC(=O)C2C(/C=C(\C#N)C(=O)OC(C)C)C2(C)C)c(F)c1F (stereo not shown) [Present Compound 5, 4-methoxymethyl-2,3,5,6-tetrafluorobenzyl 2,2-dimethyl-3-((E)-2-cyano-3-isopropoxy-3-oxo-1-propenyl) cyclopropanecarboxylate] | 1.5
5 | COCc1c(F)c(F)c(COC(=O)C2C(/C=C(\F)C(=O)OC)C2(C)C)c(F)c1F (stereo not drawn) [Comparative Compound, (4-methoxymethyl-2,3,5,6-tetrafluoro)phenylmethyl [1R[1α, 3β(Z)]]-2,2-dimethyl-3-(2-fluoro-3-methoxy-3-oxopropenyl)cyclopropanecarboxylate, reference compound] | >10
6 | COCc1c(F)c(F)c(COC(=O)C2C(/C=C(\C#N)C(=O)OC)C2(C)C)c(F)c1F (stereo not shown) [Present Compound 2, 4-methoxymethyl-2,3,5,6-tetrafluorobenzyl 2,2-dimethyl-3-((E)-2-cyano-3-methoxy-3-oxo-1-propenyl) cyclopropanecarboxylate] | 1.9
7 | C=CCOC(=O)/C(C#N)=C/C1C(C(=O)OCc2c(F)c(F)c(COC)c(F)c2F)C1(C)C (stereo not shown) [Present Compound 4, 4-methoxymethyl-2,3,5,6-tetrafluorobenzyl 2,2-dimethyl-3-((E)-2-cyano-3-allyloxy-3-oxo-1-propenyl) cyclopropanecarboxylate] | 4.3
